By pIC50 is commonly meant the IC50 on a negative log10 scale, so that one unit is a factor of ten.

From ChEMBL document CHEMBL5625228, “Design, synthesis, and bioactivity evaluation of novel amide/sulfonamide derivatives as potential anti-inflammatory agents against acute lung injury and ulcerative colitis” (Eur J Med Chem, 2023) come the findings set out here.

pIC50: −log10 of the molar value. Activity calls are given as the source filed them. No cut-off for these calls is given here.

Test [1] has as its system J774.A1. The test can be described thus: Antiinflammatory activity against mouse J774.A1 cells assessed as inhibition of LPS-induced IL-6 release preincubated with compound for 30 mins followed by LPS-induction and measured after 24 hrs by ELISA analysis. It is filed as functional, cell-based. On the technique in general: An ELISA detects its analyte on a solid surface through an enzyme-linked reagent.

The subject of test [2] is J774.A1. The test can be described thus: Antiinflammatory activity against mouse J774.A1 cells assessed as inhibition of LPS-induced IL-6 production pretreated with compound for 30 mins followed by LPS induction and measured after 24 hrs by ELISA analysis. Note: test concentration or dose not given here. It counts as functional. Particulars: time 1470 min; 24.5 h.
Test [3] has as its system J774.A1. The test can be described thus: Antiinflammatory activity against mouse J774.A1 cells assessed as inhibition of LPS-induced TNF-alpha release preincubated with compound for 30 mins followed by LPS-induction and measured after 24 hrs by ELISA analysis. It is filed as functional, cell-based.
The test system of test [4] is J774.A1. The test can be described thus: Antiinflammatory activity against mouse J774.A1 cells assessed as inhibition of LPS-induced TNF-alpha production pretreated with compound for 30 mins followed by LPS induction and measured after 24 hrs by ELISA analysis. Note: test concentration or dose not given here. It counts as functional. The settings on record: time 1470 min; 24.5 h.
Test [5] concerns J774.A1. The test can be described thus: Antiinflammatory activity against LPS-induced mouse J774.A1 cells assessed as effect on IL-6 mRNA level preincubated with compound for 30 mins followed by LPS-induction and measured after 6 hrs by qPCR analysis. The settings on record: time 390.0 min. It is filed as functional, cell-based. A general note: Quantitative PCR measures a nucleic acid by following its amplification.

Test [6] concerns J774.A1. The experiment in a line: Antiinflammatory activity against LPS-induced mouse J774.A1 cells assessed as downregulation of IL-6 mRNA level preincubated with compound for 30 mins followed by LPS-induction and measured after 6 hrs by qPCR analysis. It is filed as functional, cell-based. The settings on record: time 390.0 min.
Test [7] relates to J774.A1. The test can be described thus: Antiinflammatory activity against LPS-induced mouse J774.A1 cells assessed as downregulation of TNF-alpha mRNA level preincubated with compound for 30 mins followed by LPS-induction and measured after 6 hrs by qPCR analysis. It counts as functional, cell-based. The settings on record: time 390.0 min.

With `O=[N+]([O-])c1cc(S(=O)(=O)NCc2ccccn2)ccc1N1CCN(Cc2ccccc2)CC1`, the negative-log IC50 (pIC50) in the test with J774.A1 [1] is 5.31; with J774.A1 [3], 5.00. The “inhibition (INH)” value amounted to 69.3% with J774.A1 [2] and 50.22% in the test with J774.A1 [4]. Moreover, the result in the test with J774.A1 [5] was inactive.

For the compound `O=[N+]([O-])c1ccc(CN2CCN(c3ccc(S(=O)(=O)NCc4ccccn4)cc3[N+](=O)[O-])CC2)cc1`, the negative-log IC50 (pIC50) in the test with J774.A1 [1] was 5.88; with J774.A1 [3], 5.07. The “inhibition (INH)” value turned out to be 69.93% in the test with J774.A1 [2] and 42.19% in the test with J774.A1 [4]. Moreover, the result with J774.A1 [6] and in the test on J774.A1 [7] was Active.
